Assay results reported in patent US12570675B2, “Boronic acid compounds” (LG CHEM, LTD., priority 2020, dated 2026).
pIC50: −log10 of the molar value.

Legend:
[1] = target: Proteasome chymotrypsin-like activity (S26 protein from RPMI8226 cells) (Homo sapiens, UniProt P28074); assay type: biochemical; details: S26 protein from RPMI8226 cell extract 2 ug/well, substrate 20 uM, 37° C., 90 minutes; read-out: Proteasome chymotrypsin-like activity inhibition IC50
How it was run: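 Fluorogenic AMC substrates (20 uM final) report chymotrypsin-like (Suc-Leu-Leu-Val-Tyr-AMC) or caspase-like (Z-Leu-Leu-Glu-AMC) cleavage by RPMI8226-derived S26 protein, 2 ug/well, pH 8.0 Tris lysate.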

[2] = target: Proteasome caspase-like activity (S26 protein from RPMI8226 cells) (Homo sapiens (Human), UniProt P28072); experiment: Proteasome caspase-like activity inhibition (Z-Leu-Leu-Glu-AMC fluorogenic substrate, RPMI8226 cell extract); assay type: biochemical; details: S26 protein from RPMI8226 cell extract 2 ug/well, substrate 20 uM, 37° C., 90 minutes
Method: The abilities to inhibit the proteasome activity of the compounds described in the Examples of the present invention and boronic acid drugs were evaluated as follows.
RPMI8226 cells, which is a multiple myeloma cell line, were cultured and then separated by a centrifuge, and washed twice with phosphate buffered saline (PBS). 20 mM of a tris-HCl (pH 8.0) buffer solution was added to the washed cells, and the cells were disrupted by a homogenizer and centrifuged to obtain S26 protein from the supernatant. Suc-Leu-Leu-Val-Tyr-AMC, for a fluorogenic substrate for the chymotrypsin-like activity of the proteasome, and Z-Leu-Leu-Glu-AMC, for a fluorogenic substrate for the caspase-like activity, were purchased from Calbiochem, EMD Millipore and used. Into each well of a 96-well plate (opaque, black round bottom), 20 ul of the S26 protein (final RPMI8226 cell extract concentration: 2 ug/well), 10 ul of S26 proteasome inhibitor serially diluted from 10 uM (final DMSO concentration: 0.5%), and 20 ul of the fluorogenic substrate for the proteasome chymotrypsin-like or caspase-like activity (final concentration: 20 uM) were added and mixed and allowed to react in a 37° C. incubator for 90 minutes. The fluorescence of the fluorogenic substrate was measured by FlexStation II Fluorometer (Molecular Devices). The fluorescence inhibited by the compound diluted at each concentration was measured as the relative percentage value for the amount obtained from the treatment only with the S26 protein and the fluorogenic substrate. IC50 (inhibitory concentration 50) was expressed in terms of a concentration that inhibits 50% of the maximum fluorescence induced by the fluorogenic substrate.

Sequence of Proteasome caspase-like activity (S26 protein from RPMI8226 cells) (P28072 whole entry): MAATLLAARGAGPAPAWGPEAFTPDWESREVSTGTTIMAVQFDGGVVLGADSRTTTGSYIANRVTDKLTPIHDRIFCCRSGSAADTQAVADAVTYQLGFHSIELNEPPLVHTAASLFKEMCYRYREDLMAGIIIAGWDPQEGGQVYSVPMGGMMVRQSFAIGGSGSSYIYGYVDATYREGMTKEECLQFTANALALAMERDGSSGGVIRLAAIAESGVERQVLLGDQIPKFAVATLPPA
Sequence of Proteasome chymotrypsin-like activity (S26 protein from RPMI8226 cells) (P28074 60-263 limits assumed): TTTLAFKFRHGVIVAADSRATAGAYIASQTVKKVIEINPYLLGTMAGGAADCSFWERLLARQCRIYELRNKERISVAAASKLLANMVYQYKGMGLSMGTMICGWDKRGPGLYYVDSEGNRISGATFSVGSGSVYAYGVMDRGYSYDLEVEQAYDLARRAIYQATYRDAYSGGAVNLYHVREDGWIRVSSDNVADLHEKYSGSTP

Cc1cccc(COCC2=NOC(Cc3ccccc3)(C(=O)N[C@@H](CC(C)C)B(O)O)C2)n1 (stereo partly drawn) [Example 47, ((1R)-1-(5-benzyl-3-(((6-methylpyridin-2-yl)methoxy)methyl)-4,5-dihydroisoxazol-5-carboxamido)-3-methylbutyl)boronic acid]
pIC50 [1]: > 8.00 | pIC50 [2]: < 6.60

CCCC1(C(=O)N[C@@H](CC(C)C)B(O)O)CC(CNC(=O)c2cc(Cl)ccc2Cl)=NO1 (stereo partly drawn) [Example 88, ((1R)-1-(3-((2,5-dichlorobenzamido)methyl)-5-propyl-4,5-dihydroisoxazol-5-carboxamido)-3-methylbutyl)boronic acid]
pIC50 [1]: > 7.60 | pIC50 [2]: < 5.60

CC(C)C[C@H](NC(=O)C1CC(COCc2ccccc2)=NO1)B(O)O (stereo partly shown) [Example 252]
pIC50 [1]: > 7.00 | pIC50 [2]: < 6.30

CC(C)C[C@H](NC(=O)C1(Cc2ccccc2)CC(CNC(=O)c2nn(C)c3ccccc23)=NO1)B(O)O (stereo partly drawn) [Example 201, ((1R)-1-(5-benzyl-3-((1-methyl-1H-indazol-3-carboxamido)methyl)-4,5-dihydroisoxazol-5-carboxamido)-3-methylbutyl)boronic acid]
pIC50 [1]: > 8.00 | pIC50 [2]: < 6.60

CC(C)C[C@H](NC(=O)C1(Cc2ccccc2)CC(CNS(=O)(=O)c2cc(Cl)ccc2Cl)=NO1)B(O)O (stereo partly drawn) [Example 143, ((1R)-1-(5-benzyl-3-(((2,5-dichlorophenyl)sulfonamido)methyl)-4,5-dihydroisoxazol-5-carboxamido)-3-methylbutyl)boronic acid]
pIC50 [1]: > 8.00 | pIC50 [2]: < 6.30

CC(C)C[C@H](NC(=O)C1CC(CNC(=O)c2ccccc2)=NO1)B(O)O (stereo partly drawn) [Example 59, ((1R)-1-(3-(benzamidomethyl)-4,5-dihydroisoxazol-5-carboxamido)-3-methylbutyl)boronic acid]
pIC50 [1]: > 7.00 | pIC50 [2]: < 6.30

CC(C)C[C@H](NC(=O)C1(Cc2ccccc2)CC(CNC(=O)c2cnc3c(ccn3C(C)C)c2)=NO1)B(O)O (stereo partly drawn) [Example 212, ((1R)-1-(5-benzyl-3-((1-isopropyl-1H-pyrrolo[2,3-b]pyridin-5-carboxamido)methyl)-4,5-dihydroisoxazol-5-carboxamido)-3-methylbutyl)boronic acid]
pIC50 [1]: > 8.00 | pIC50 [2]: < 7.00

CC(C)C[C@H](NC(=O)C1CC(CNC(=O)c2cccc(Oc3ccccc3)c2)=NO1)B(O)O (stereo partly drawn) [Example 71, ((1R)-3-methyl-1-(3-((3-phenoxybenzamido)methyl)-4,5-dihydroisoxazol-5-carboxamido)butyl)boronic acid]
pIC50 [1]: > 7.60 | pIC50 [2]: < 6.60

CC(C)C[C@H](NC(=O)C1(Cc2ccccc2)CC(COCc2ccccc2)=NO1)B(O)O (stereo partly shown) [Example 256]
pIC50 [1]: > 8.00 | pIC50 [2]: < 6.00

CC(C)C[C@H](NC(=O)C1(Cc2ccccc2)CC(CNC(=O)c2cc(Cl)ccc2Cl)=NO1)B(O)O (stereo partly drawn) [Example 85, ((1R)-1-(5-benzyl-3-((2,5-dichlorobenzamido)methyl)-4,5-dihydroisoxazol-5-carboxamido)-3-methylbutyl)boronic acid]
pIC50 [1]: > 8.00 | pIC50 [2]: < 6.00

CC(C)C[C@H](NC(=O)C1(Cc2ccccc2)CC(CNC(=O)c2cc(C(F)(F)F)ccc2Cl)=NO1)B(O)O (stereo partly drawn) [Example 112, ((1R)-1-(5-benzyl-3-((2-chloro-5-(trifluoromethyl)benzamido)methyl)-4,5-dihydroisoxazol-5-carboxamido)-3-methylbutyl)boronic acid]
pIC50 [1]: > 8.00 | pIC50 [2]: < 5.60

Cc1ccc(F)cc1C(=O)NCC1=NOC(C(=O)N[C@@H](CC(C)C)B(O)O)C1 (stereo partly drawn) [Example 82, ((1R)-1-(3-((5-fluoro-2-methylbenzamido)methyl)-4,5-dihydroisoxazol-5-carboxamido)-3-methylbutyl)boronic acid]
pIC50 [1]: > 7.30 | pIC50 [2]: < 6.30

CC(C)C[C@H](NC(=O)C1(Cc2ccccc2)CC([C@@H](NC(=O)c2nccc3ccccc23)C(C)C)=NO1)B(O)O (stereo partly drawn) [Example 148, ((1R)-1-(5-benzyl-3-((S)-1-(isoquinolin-1-carboxamido)-2-methylpropyl)-4,5-dihydroisoxazol-5-carboxamido)-3-methylbutyl)boronic acid]
pIC50 [1]: > 7.60 | pIC50 [2]: < 6.00

CCC1(C(=O)N[C@@H](CC(C)C)B(O)O)CC(CNC(=O)c2cc(Cl)ccc2Cl)=NO1 (stereo partly drawn) [Example 87, ((1R)-1-(3-((2,5-dichlorobenzamido)methyl)-5-ethyl-4,5-dihydroisoxazol-5-carboxamido)-3-methylbutyl)boronic acid]
pIC50 [1]: > 7.30 | pIC50 [2]: < 5.60

Cc1nc(C)c(C(=O)NCC2=NOC(Cc3ccccc3)(C(=O)N[C@@H](CC(C)C)B(O)O)C2)s1 (stereo partly drawn) [Example 130, ((1R)-1-(5-benzyl-3-((2,4-dimethylthiazol-5-carboxamido)methyl)-4,5-dihydroisoxazol-5-carboxamido)-3-methylbutyl)boronic acid]
pIC50 [1]: > 8.00 | pIC50 [2]: < 6.30

Cc1cc(C(=O)NCC2=NOC(Cc3ccccc3)(C(=O)N[C@@H](CC(C)C)B(O)O)C2)n(C2CCCC2)n1 (stereo partly drawn) [Example 196, ((1R)-1-(5-benzyl-3-((1-cyclopentyl-3-methyl-1H-pyrazol-5-carboxamido)methyl)-4,5-dihydroisoxazol-5-carboxamido)-3-methylbutyl)boronic acid]
pIC50 [1]: > 8.00 | pIC50 [2]: < 6.00

CC(C)C[C@H](NC(=O)C1CC(CNC(=O)c2cc(Cl)ccc2Cl)=NO1)B(O)O (stereo partly drawn) [Example 68, ((1R)-1-(3-((2,5-dichlorobenzamido)methyl)-4,5-dihydroisoxazol-5-carboxamido)-3-methylbutyl)boronic acid]
pIC50 [1]: > 8.00 | pIC50 [2]: < 6.30

CC(C)C[C@H](NC(=O)C1(Cc2ccccc2)CC(CNC(=O)c2ccccc2)=NO1)B(O)O (stereo partly shown) [Example 291]
pIC50 [1]: > 8.00 | pIC50 [2]: < 6.60

Cc1nc(C)c(C(=O)NCC2=NOC(COc3ccccc3)(C(=O)N[C@@H](CC(C)C)B(O)O)C2)s1 (stereo partly drawn) [Example 141, ((1R)-1-(3-((2,4-dimethylthiazol-5-carboxamido)methyl)-5-(phenoxymethyl)-4,5-dihydroisoxazol-5-carboxamido)-3-methylbutyl)boronic acid]
pIC50 [1]: > 8.00 | pIC50 [2]: < 6.30

CC(C)C[C@H](NC(=O)C1(Cc2ccccc2)CC(CNC(=O)c2cccc(C(F)(F)F)n2)=NO1)B(O)O (stereo partly drawn) [Example 186, ((1R)-1-(5-benzyl-3-((6-(trifluoromethyl)picolinamido)methyl)-4,5-dihydroisoxazol-5-carboxamido)-3-methylbutyl)boronic acid]
pIC50 [1]: > 8.00 | pIC50 [2]: < 6.00

CC(C)C[C@H](NC(=O)C1(Cc2ccccc2)CC(CNC(=O)c2ccc3c(ccn3C(C)C)c2)=NO1)B(O)O (stereo partly drawn) [Example 129, ((1R)-1-(5-benzyl-3-((1-isopropyl-1H-indol-5-carboxamido)methyl)-4,5-dihydroisoxazol-5-carboxamido)-3-methylbutyl)boronic acid]
pIC50 [1]: > 8.00 | pIC50 [2]: < 6.60

CC(C)C[C@H](NC(=O)C1(Cc2ccccc2)CC(CNC(=O)c2cnn(C(C)C)c2)=NO1)B(O)O (stereo partly drawn) [Example 188, ((1R)-1-(5-benzyl-3-((1-isopropyl-1H-pyrazol-4-carboxamido)methyl)-4,5-dihydroisoxazol-5-carboxamido)-3-methylbutyl)boronic acid]
pIC50 [1]: > 8.00 | pIC50 [2]: < 6.00

Cc1cc(C(=O)NCC2=NOC(Cc3ccccc3)(C(=O)N[C@@H](CC(C)C)B(O)O)C2)no1 (stereo partly drawn) [Example 107, ((1R)-1-(5-benzyl-3-((5-methylisoxazol-3-carboxamido)methyl)-4,5-dihydroisoxazol-5-carboxamido)-3-methylbutyl)boronic acid]
pIC50 [1]: > 8.00 | pIC50 [2]: < 6.30

Cc1cc(C(=O)NCC2=NOC(Cc3ccccc3)(C(=O)N[C@@H](CC(C)C)B(O)O)C2)n(-c2ccccc2)n1 (stereo partly drawn) [Example 246, ((1R)-1-(5-benzyl-3-((3-methyl-1-phenyl-1H-pyrazol-5-carboxamido)methyl)-4,5-dihydroisoxazol-5-carboxamido)-3-methylbutyl)boronic acid]
pIC50 [1]: > 8.00 | pIC50 [2]: < 6.00

Cc1nc(COCC2=NOC(Cc3ccccc3)(C(=O)N[C@@H](CC(C)C)B(O)O)C2)cs1 (stereo partly drawn) [Example 46, ((1R)-1-(5-benzyl-3-(((2-methylthiazol-4-yl)methoxy)methyl)-4,5-dihydroisoxazol-5-carboxamido)-3-methylbutyl)boronic acid]
pIC50 [1]: > 8.00 | pIC50 [2]: < 6.60

COc1cccc(CC2(C(=O)N[C@@H](CC(C)C)B(O)O)CC(CNC(=O)c3nccc4ccccc34)=NO2)c1 (stereo partly drawn) [Example 100, ((1R)-1-(3-((isoquinolin-1-carboxamido)methyl)-5-(3-methoxybenzyl)-4,5-dihydroisoxazol-5-carboxamido)-3-methylbutyl)boronic acid]
pIC50 [1]: > 8.00 | pIC50 [2]: < 6.00
